According to the NIST ThermoML archive (doi:10.1021/je0501843):
Values joined by “and” are separate entries in the source; they are usually repeats but may differ in a detail not shown here. Identical values can stand only once. ± gives the expanded uncertainty stated by the source.

Assay: molar heat capacity at constant volume
Conditions: Fluid (supercritical or subcritical phases), Vacuum adiabatic calorimetry

FC(F)C(F)(F)F [pentafluoroethane]
Conditions	molar heat capacity at constant volume
382 K, Mass density=585 kg/m3	117.04 ± 2.4 J/K/mol
382 K, Mass density=687.5 kg/m3	116.38 ± 2.3 J/K/mol
382 K, Mass density=772.5 kg/m3	113.59 ± 2.3 J/K/mol
382 K, Mass density=880.7 kg/m3	113.14 ± 2.3 J/K/mol
382 K, Mass density=972.5 kg/m3	113.55 ± 2.3 J/K/mol and 110.23 ± 2.2 J/K/mol
383 K, Mass density=403.3 kg/m3	116.83 ± 2.4 J/K/mol
383 K, Mass density=502.6 kg/m3	115.94 ± 2.3 J/K/mol
383 K, Mass density=585 kg/m3	116.44 ± 2.3 J/K/mol
383 K, Mass density=687.4 kg/m3	115.8 ± 2.3 J/K/mol
383 K, Mass density=772.4 kg/m3	112.32 ± 2.3 J/K/mol
383 K, Mass density=880.7 kg/m3	112.41 ± 2.3 J/K/mol
383 K, Mass density=972.4 kg/m3	107.88 ± 2.2 J/K/mol and 110.36 ± 2.2 J/K/mol
384 K, Mass density=403.3 kg/m3	115.53 ± 2.3 J/K/mol
384 K, Mass density=502.6 kg/m3	114.75 ± 2.3 J/K/mol
384 K, Mass density=585 kg/m3	115.28 ± 2.3 J/K/mol
384 K, Mass density=687.4 kg/m3	113.97 ± 2.3 J/K/mol
384 K, Mass density=772.4 kg/m3	111.67 ± 2.2 J/K/mol
384 K, Mass density=880.6 kg/m3	112.26 ± 2.3 J/K/mol
384 K, Mass density=972.3 kg/m3	108.78 ± 2.2 J/K/mol and 109.57 ± 2.2 J/K/mol
385 K, Mass density=403.2 kg/m3	109.7 ± 2.2 J/K/mol
385 K, Mass density=502.5 kg/m3	112.54 ± 2.3 J/K/mol
385 K, Mass density=584.9 kg/m3	115.82 ± 2.3 J/K/mol
385 K, Mass density=687.4 kg/m3	113.72 ± 2.3 J/K/mol
385 K, Mass density=772.3 kg/m3	112.59 ± 2.3 J/K/mol
385 K, Mass density=880.6 kg/m3	111.79 ± 2.2 J/K/mol
385 K, Mass density=972.3 kg/m3	110.01 ± 2.2 J/K/mol and 109.27 ± 2.2 J/K/mol
386 K, Mass density=403.2 kg/m3	109.65 ± 2.2 J/K/mol
386 K, Mass density=502.5 kg/m3	114.07 ± 2.3 J/K/mol
386 K, Mass density=584.9 kg/m3	117.48 ± 2.4 J/K/mol
386 K, Mass density=687.3 kg/m3	115.04 ± 2.3 J/K/mol
386 K, Mass density=772.3 kg/m3	114.08 ± 2.3 J/K/mol
386 K, Mass density=880.5 kg/m3	113.14 ± 2.3 J/K/mol
386 K, Mass density=972.2 kg/m3	111.04 ± 2.2 J/K/mol and 111.43 ± 2.2 J/K/mol
387 K, Mass density=403.2 kg/m3	111.98 ± 2.3 J/K/mol
387 K, Mass density=502.5 kg/m3	114.1 ± 2.3 J/K/mol
387 K, Mass density=584.9 kg/m3	115.44 ± 2.3 J/K/mol
387 K, Mass density=687.3 kg/m3	115.22 ± 2.3 J/K/mol
387 K, Mass density=772.2 kg/m3	113.77 ± 2.3 J/K/mol
387 K, Mass density=880.4 kg/m3	113.04 ± 2.3 J/K/mol
387 K, Mass density=972.1 kg/m3	109.68 ± 2.2 J/K/mol and 111.27 ± 2.2 J/K/mol
388 K, Mass density=403.2 kg/m3	113.46 ± 2.3 J/K/mol
388 K, Mass density=502.5 kg/m3	111.2 ± 2.2 J/K/mol
388 K, Mass density=584.8 kg/m3	114.82 ± 2.3 J/K/mol
388 K, Mass density=687.2 kg/m3	114.32 ± 2.3 J/K/mol
388 K, Mass density=772.2 kg/m3	113.36 ± 2.3 J/K/mol
388 K, Mass density=880.4 kg/m3	110.83 ± 2.2 J/K/mol
388 K, Mass density=972 kg/m3	109.02 ± 2.2 J/K/mol and 109.9 ± 2.2 J/K/mol
389 K, Mass density=403.2 kg/m3	112.17 ± 2.3 J/K/mol
389 K, Mass density=502.4 kg/m3	110.52 ± 2.2 J/K/mol
389 K, Mass density=584.8 kg/m3	116.36 ± 2.3 J/K/mol
389 K, Mass density=687.2 kg/m3	114.28 ± 2.3 J/K/mol
389 K, Mass density=772.1 kg/m3	114.22 ± 2.3 J/K/mol
389 K, Mass density=880.3 kg/m3	112.08 ± 2.3 J/K/mol
389 K, Mass density=972 kg/m3	110.08 ± 2.2 J/K/mol and 110.71 ± 2.2 J/K/mol
390 K, Mass density=403.1 kg/m3	112.23 ± 2.3 J/K/mol
390 K, Mass density=502.4 kg/m3	112.47 ± 2.3 J/K/mol
390 K, Mass density=584.8 kg/m3	115.03 ± 2.3 J/K/mol
390 K, Mass density=687.2 kg/m3	115.41 ± 2.3 J/K/mol
390 K, Mass density=772.1 kg/m3	115.46 ± 2.3 J/K/mol
390 K, Mass density=880.2 kg/m3	113.85 ± 2.3 J/K/mol
390 K, Mass density=971.9 kg/m3	113.14 ± 2.3 J/K/mol and 111.04 ± 2.2 J/K/mol
391 K, Mass density=403.1 kg/m3	115.12 ± 2.3 J/K/mol
391 K, Mass density=502.4 kg/m3	111.21 ± 2.2 J/K/mol
391 K, Mass density=584.7 kg/m3	113.95 ± 2.3 J/K/mol
391 K, Mass density=687.1 kg/m3	114.69 ± 2.3 J/K/mol
391 K, Mass density=772 kg/m3	114.4 ± 2.3 J/K/mol
391 K, Mass density=880.2 kg/m3	113.13 ± 2.3 J/K/mol
391 K, Mass density=971.8 kg/m3	113.73 ± 2.3 J/K/mol and 111.12 ± 2.2 J/K/mol
392 K, Mass density=403.1 kg/m3	113.94 ± 2.3 J/K/mol
392 K, Mass density=502.4 kg/m3	111.32 ± 2.2 J/K/mol
392 K, Mass density=584.7 kg/m3	113.44 ± 2.3 J/K/mol
392 K, Mass density=687.1 kg/m3	113.17 ± 2.3 J/K/mol
392 K, Mass density=772 kg/m3	112.45 ± 2.3 J/K/mol
392 K, Mass density=880.1 kg/m3	111.39 ± 2.2 J/K/mol
392 K, Mass density=971.7 kg/m3	108.99 ± 2.2 J/K/mol and 110.55 ± 2.2 J/K/mol
393 K, Mass density=403.1 kg/m3	113.84 ± 2.3 J/K/mol
393 K, Mass density=502.3 kg/m3	114.93 ± 2.3 J/K/mol
393 K, Mass density=584.7 kg/m3	112.26 ± 2.3 J/K/mol
393 K, Mass density=687 kg/m3	114.98 ± 2.3 J/K/mol
393 K, Mass density=771.9 kg/m3	113.77 ± 2.3 J/K/mol
393 K, Mass density=880 kg/m3	112.82 ± 2.3 J/K/mol
393 K, Mass density=971.6 kg/m3	109.6 ± 2.2 J/K/mol and 110.84 ± 2.2 J/K/mol
394 K, Mass density=403.1 kg/m3	113.19 ± 2.3 J/K/mol
394 K, Mass density=502.3 kg/m3	113.53 ± 2.3 J/K/mol
394 K, Mass density=584.6 kg/m3	113.56 ± 2.3 J/K/mol
394 K, Mass density=687 kg/m3	116.48 ± 2.3 J/K/mol
394 K, Mass density=771.9 kg/m3	114.28 ± 2.3 J/K/mol
394 K, Mass density=880 kg/m3	113.31 ± 2.3 J/K/mol
394 K, Mass density=971.6 kg/m3	113.46 ± 2.3 J/K/mol and 112.41 ± 2.3 J/K/mol
395 K, Mass density=403 kg/m3	112.66 ± 2.3 J/K/mol
395 K, Mass density=502.3 kg/m3	112.95 ± 2.3 J/K/mol
395 K, Mass density=584.6 kg/m3	114.13 ± 2.3 J/K/mol
395 K, Mass density=687 kg/m3	114.63 ± 2.3 J/K/mol
395 K, Mass density=771.8 kg/m3	113.37 ± 2.3 J/K/mol
395 K, Mass density=879.9 kg/m3	112.11 ± 2.3 J/K/mol
395 K, Mass density=971.5 kg/m3	112.76 ± 2.3 J/K/mol and 111.6 ± 2.2 J/K/mol
396 K, Mass density=403 kg/m3	114.19 ± 2.3 J/K/mol
396 K, Mass density=502.3 kg/m3	115.6 ± 2.3 J/K/mol
396 K, Mass density=584.6 kg/m3	113.53 ± 2.3 J/K/mol
396 K, Mass density=686.9 kg/m3	113.17 ± 2.3 J/K/mol
396 K, Mass density=771.8 kg/m3	113.35 ± 2.3 J/K/mol
396 K, Mass density=879.9 kg/m3	112.93 ± 2.3 J/K/mol
396 K, Mass density=971.4 kg/m3	112.77 ± 2.3 J/K/mol and 110.2 ± 2.2 J/K/mol
397 K, Mass density=403 kg/m3	115.11 ± 2.3 J/K/mol
397 K, Mass density=502.2 kg/m3	113.37 ± 2.3 J/K/mol
397 K, Mass density=584.5 kg/m3	112.42 ± 2.3 J/K/mol
397 K, Mass density=686.9 kg/m3	113.72 ± 2.3 J/K/mol
397 K, Mass density=771.7 kg/m3	113.23 ± 2.3 J/K/mol
397 K, Mass density=879.8 kg/m3	113.97 ± 2.3 J/K/mol
397 K, Mass density=971.3 kg/m3	112.64 ± 2.3 J/K/mol and 111.54 ± 2.2 J/K/mol
398 K, Mass density=403 kg/m3	115.94 ± 2.3 J/K/mol
398 K, Mass density=502.2 kg/m3	111.91 ± 2.2 J/K/mol
398 K, Mass density=584.5 kg/m3	113.66 ± 2.3 J/K/mol
398 K, Mass density=686.8 kg/m3	116.24 ± 2.3 J/K/mol
398 K, Mass density=771.7 kg/m3	114.52 ± 2.3 J/K/mol
398 K, Mass density=879.7 kg/m3	113.6 ± 2.3 J/K/mol
398 K, Mass density=971.3 kg/m3	113.46 ± 2.3 J/K/mol and 112.92 ± 2.3 J/K/mol
399 K, Mass density=502.2 kg/m3	114.43 ± 2.3 J/K/mol
399 K, Mass density=584.5 kg/m3	115.44 ± 2.3 J/K/mol
399 K, Mass density=686.8 kg/m3	115.5 ± 2.3 J/K/mol
399 K, Mass density=771.6 kg/m3	114.85 ± 2.3 J/K/mol
399 K, Mass density=879.7 kg/m3	112.05 ± 2.3 J/K/mol
399 K, Mass density=971.2 kg/m3	112.08 ± 2.3 J/K/mol
